Measured values as given in patent US20110053947A1, “Arylchalcogenoarylalkyl-substituted imidazolidine-2,4-diones, process for preparation thereof, medicaments comprising these compounds and use thereof” (SANOFI-AVENTIS, priority 2008, published 2011).
Read-outs that look alike come from different tables or passages of the source.

Tests used:
[1] = biological target: T1, cannabinoid CB1 receptor (CB1) (Mus musculus, UniProt P47746); experiment: Antagonization of CB1-mediated hypothermia; assay type: in vivo; conditions: female NMRI mice; 1.25 mg/kg intraperitoneally; within 30 min
T1 construct: from tissue; host or cells: whole animal (female NMRI mice)
T1 sequence (P47746 whole entry): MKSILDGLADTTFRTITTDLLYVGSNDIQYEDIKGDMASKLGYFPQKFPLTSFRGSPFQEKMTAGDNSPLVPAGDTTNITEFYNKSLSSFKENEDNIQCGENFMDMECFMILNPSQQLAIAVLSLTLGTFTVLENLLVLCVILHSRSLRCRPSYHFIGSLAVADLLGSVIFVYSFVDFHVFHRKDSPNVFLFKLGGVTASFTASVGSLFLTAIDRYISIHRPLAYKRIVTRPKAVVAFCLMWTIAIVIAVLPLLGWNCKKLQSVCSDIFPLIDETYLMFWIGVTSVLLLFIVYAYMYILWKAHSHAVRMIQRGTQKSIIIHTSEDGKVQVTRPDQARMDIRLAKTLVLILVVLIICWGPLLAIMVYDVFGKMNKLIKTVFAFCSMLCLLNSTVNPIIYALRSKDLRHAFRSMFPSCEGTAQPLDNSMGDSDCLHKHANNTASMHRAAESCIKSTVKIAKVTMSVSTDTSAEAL
Method: “Antagonization of CB 1-mediated Hypothermia”
The test is used to measure the potency of cannabinoid CB1 receptor (CB1) antagonists. What is measured is the extent to which the CB1 antagonists to be tested are capable of preventing or of antagonizing hypothermia induced by a CB1 agonist.
Female NMRI mice, 25-35 g in weight, are used. The mice are accustomed to the housing conditions for at least one week.
At time 0 min, the animals are treated orally, intravenously or intraperitoneally with the CB1 antagonist to be tested. 30 min later, the CB1 agonist CP55.940, 1.25 mg/kg, is administered to the mice intraperitoneally. This brings about a fall in the body temperature by 5-6° C. within 30 min. The body temperature is measured rectally for the first time 30 min before the test substance administration and then every 30 min after this administration, if appropriate immediately before a substance administration, over 4 hours.
The potency of the test substances is reported as the percentage decrease in the area under the temperature-time curve which is formed firstly by the average basal temperature, and secondly by the temperature-time curve, of the animals treated exclusively with the CB1 antagonist.

[2] = biological target: T2, cannabinoid 1 receptor (hCB1R) (Homo sapiens, UniProt P21554); experiment: In vitro functional assay with recombinant cells (FLIPR), CB1; assay type: cell-based; conditions: intracellular Ca2+ change after reference agonist, 20 min preincubation
T2 construct: expressed in transfected cells; host or cells: HEK293
T2 sequence (P21554 whole entry): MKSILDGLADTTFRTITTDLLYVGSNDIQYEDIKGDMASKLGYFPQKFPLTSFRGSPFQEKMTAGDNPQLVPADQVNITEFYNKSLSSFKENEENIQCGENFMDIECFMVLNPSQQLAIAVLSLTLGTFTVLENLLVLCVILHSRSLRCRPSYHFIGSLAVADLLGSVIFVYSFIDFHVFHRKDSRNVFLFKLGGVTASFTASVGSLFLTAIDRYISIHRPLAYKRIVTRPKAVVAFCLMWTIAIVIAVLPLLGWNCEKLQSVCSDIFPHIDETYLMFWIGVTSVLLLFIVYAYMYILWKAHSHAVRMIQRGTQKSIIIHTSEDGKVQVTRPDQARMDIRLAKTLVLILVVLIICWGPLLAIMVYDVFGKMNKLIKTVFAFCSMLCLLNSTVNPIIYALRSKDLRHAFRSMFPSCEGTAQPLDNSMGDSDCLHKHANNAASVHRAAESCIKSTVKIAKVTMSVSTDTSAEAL
Method: (§1) In vitro functional assays with recombinant cells:
(§2) Function-testing assays were performed by means of the FLIPR technique (“Fluorometric Imaging Plate Reader”, Molecular Devices Corp.).
(§3) To this end, ligand-induced changes in the intracellular concentration of Ca^2+ in recombinant HEK293 cells, which expressed both a cannabinoid receptor (CB1 or CB2) and G-protein Galphal6, were determined. For the studies, cells were sown into 96-well microtiter plates (60 000 cells/well) and left to grow overnight. The medium was removed and the cells were incubated in buffer which contained the fluorescent dye Fluo-4. After this loading with dye, the cells were washed, test substance was added dissolved in buffer, the mixture was incubated for 20 minutes, a known cannabinoid receptor agonist as a reference agonist was added in buffer and, finally, the changes in the intracellular Ca^2+ concentration were measured in the FLIPR unit.
Results were presented as the percentage change relative to the control (0%: analogous experiment without test substance and without reference agonist, i.e. only with buffer; 100%: analogous experiment without test substance, but with reference agonist in excess), and used to calculate dose/action curves, and IC50 values were determined.
The values of the functional assay compared to the cannabinoid 1 receptor including illustrative selectivities compared to the cannabinoid 2 receptor can be taken from table 1 which follows.

[3] = biological target: T3, cannabinoid 2 receptor (hCB2R) (Homo sapiens, UniProt P34972); experiment: In vitro functional assay with recombinant cells (FLIPR), CB2; assay type: cell-based
T3 construct: expressed in transfected cells; host or cells: HEK293
T3 sequence (P34972 whole entry): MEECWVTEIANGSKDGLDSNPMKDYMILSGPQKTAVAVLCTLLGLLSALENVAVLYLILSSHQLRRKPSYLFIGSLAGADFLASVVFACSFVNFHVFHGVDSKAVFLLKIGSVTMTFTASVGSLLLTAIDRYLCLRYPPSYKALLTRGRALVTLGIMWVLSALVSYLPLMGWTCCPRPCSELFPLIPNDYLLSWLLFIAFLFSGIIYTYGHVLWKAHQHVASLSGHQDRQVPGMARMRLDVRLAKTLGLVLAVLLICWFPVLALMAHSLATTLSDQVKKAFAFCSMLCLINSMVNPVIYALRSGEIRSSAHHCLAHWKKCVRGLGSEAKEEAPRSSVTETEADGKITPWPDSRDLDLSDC
Method: as §1, §2, §3

[4] = biological target: T4, CHO-K1/cannabinoid CB1 (hCB1R) (Homo sapiens, UniProt P21554); experiment: Binding to the CB1 receptor ([3H]-SR141716A displacement)
T4 construct: expressed in transfected cells; host or cells: CHO-K1
T4 sequence (P21554 whole entry): as the sequence (P21554 whole entry) above
Method: Binding to the CB 1 Receptor:
Test compounds: The compounds (3 μl, 10 mM, 100% DMSO), pipetted into 96-well PP microtiter plates, were diluted with 27 μl of 100% DMSO (dimethyl sulfoxide). Proceeding from this solution, further 3-fold dilution steps were undertaken by transferring 10 μl in each case to a new PP microtiter plate and adding a further 20 μl of 100% DMSO. In each case 6 μA of these solutions were transferred into new 96-well PP microtiter plates and made up with 144 μl of assay buffer. The end concentrations ranged from 10 μM to 0.005 μM. Negative control: AM 251, dissolved in assay buffer with 1% DMSO, was added to the dilution series in the microtiter plates as a control. The end concentration was 1 μM. Blank control: assay buffer with 1% DMSO was added to the dilution series of the microtiter plates as a blank control.
Summary of the Assay Parameters:
The values were calculated using the corrected raw data.
The values reported were obtained as average values of a double determination. The IC50 values were calculated from the measurements with the program Xlfit, formula 205. Ki values were obtained from the IC50 and Kd values utilizing the Cheng-Prusoff equation: […]
Literature: Cheng, Y.-C., and Prusoff, W. H. (1973) Biochem. Pharmacol 22, 3099-3108 Results: Ki values of example compounds; Table 2: […]

[5] = recombinant HEK293 cells expressing CB1 and G-protein, read-out: hCB1R: FLIPR, IC50

`CCCCCCC(C)(C)c1ccc([C@@H]2C[C@H](O)CC[C@H]2CCCO)c(O)c1` [CP55.940] was tested, and the “fall in the body temperature” value [1] was 5-6 °C.
With `CC1(C)C(=O)N(c2ccc(C#N)c(C(F)(F)F)c2)C(=O)N1Cc1ccccc1NC(=O)Nc1ccc(S(N)(=O)=O)cc1` [Example 1, 4-(3-{2-[3-(4-Cyano-3-trifluoromethylphenyl)-5,5-dimethyl-2,4-dioxo-imidazolidin-1-ylmethyl]phenyl}ureido)benzenesulfonamide] the IC50 [2, 5] was 24 nM, the IC50 [3] was > 10000 nM and the Ki ([4]; [3H]-SR141716A 0.5 nM, Ki from IC50 and Kd by Cheng-Prusoff, average of double determination, read-out: hCB1R, Bindung Ki) was 20 nM.
In the case of `COC(=O)c1ccc(NC(=O)Nc2ccccc2CN2C(=O)N(c3ccc(C#N)c(C(F)(F)F)c3)C(=O)C2(C)C)cc1` [Example 3, methyl 4-(3-{2-[3-(4-cyano-3-trifluoromethylphenyl)-5,5-dimethyl-2,4-dioxoimidazolidin-1-ylmethyl]phenyl}ureido)benzoate], the IC50 ([2]; hCB1R: FLIPR, IC50, recombinant HEK293 cells expressing CB1 and G-protein) is reported as 19 nM, the IC50 ([3]; recombinant HEK293 cells expressing CB2 and G-protein, intracellular Ca2+ change after reference agonist, 20 min preincubation, read-out: hCB2R: FLIPR, IC50) is reported as > 10000 nM and the Ki [4] is reported as 11 nM.
For `CCOc1ccc(NC(=O)Nc2ccccc2CN2C(=O)N(c3ccc(C#N)c(C(F)(F)F)c3)C(=O)C2(C)C)cc1` [Example 10, 1-{2-[3-(4-cyano-3-trifluoromethylphenyl)-5,5-dimethyl-2,4-dioxoimidazolidin-1-ylmethyl]phenyl}-3-(4-ethoxyphenyl)urea], the IC50 [2, 5] was 53 nM and the IC50 [3] was > 10000 nM.
